{"source": "PubChem BioAssay (NCI)", "assay_in_all_cases": "NCI-60 cell line screen, 48 h", "key": {"HL-60(TB) leukemia": {"tested_on": "HL-60(TB) leukemia"}, "OVCAR-3 ovarian": {"tested_on": "OVCAR-3 ovarian"}, "SK-MEL-28 melanoma": {"tested_on": "SK-MEL-28 melanoma"}, "A498 renal": {"tested_on": "A498 renal"}, "EKVX NSCLC": {"tested_on": "EKVX NSCLC"}, "SW-620 colon": {"tested_on": "SW-620 colon"}, "ACHN renal": {"tested_on": "ACHN renal"}, "K-562 leukemia": {"tested_on": "K-562 leukemia"}, "HT29 colon": {"tested_on": "HT29 colon"}, "RPMI-8226 leukemia": {"tested_on": "RPMI-8226 leukemia"}, "NCI-H522 lung": {"tested_on": "NCI-H522 lung"}, "HOP-18 NSCLC": {"tested_on": "HOP-18 NSCLC"}, "OVCAR-8 ovarian": {"tested_on": "OVCAR-8 ovarian"}, "HOP-62 NSCLC": {"tested_on": "HOP-62 NSCLC"}, "HCC-2998 colon": {"tested_on": "HCC-2998 colon"}, "UACC-62 melanoma": {"tested_on": "UACC-62 melanoma"}, "CCRF-CEM leukemia": {"tested_on": "CCRF-CEM leukemia"}, "IGROV1 ovarian": {"tested_on": "IGROV1 ovarian"}, "DLD-1 colon": {"tested_on": "DLD-1 colon"}, "SNB-19 CNS": {"tested_on": "SNB-19 CNS"}, "OVCAR-4 ovarian": {"tested_on": "OVCAR-4 ovarian"}, "MALME-3M melanoma": {"tested_on": "MALME-3M melanoma"}, "786-0 renal": {"tested_on": "786-0 renal"}, "SNB-75 CNS": {"tested_on": "SNB-75 CNS"}, "HCT-15 colon": {"tested_on": "HCT-15 colon"}, "TK-10 renal": {"tested_on": "TK-10 renal"}, "SR leukemia": {"tested_on": "SR leukemia"}, "CAKI-1 renal": {"tested_on": "CAKI-1 renal"}, "NCI-H23 lung": {"tested_on": "NCI-H23 lung"}, "OVCAR-5 ovarian": {"tested_on": "OVCAR-5 ovarian"}, "UO-31 renal": {"tested_on": "UO-31 renal"}, "M14 melanoma": {"tested_on": "M14 melanoma"}, "COLO 205 colon": {"tested_on": "COLO 205 colon"}, "DMS 273 small cell lung": {"tested_on": "DMS 273 small cell lung"}, "SF-539 CNS": {"tested_on": "SF-539 CNS"}, "M19-MEL melanoma": {"tested_on": "M19-MEL melanoma"}, "SK-MEL-5 melanoma": {"tested_on": "SK-MEL-5 melanoma"}, "U251 CNS": {"tested_on": "U251 CNS"}, "HCT-116 colon": {"tested_on": "HCT-116 colon"}, "DMS 114 small cell lung": {"tested_on": "DMS 114 small cell lung"}, "HOP-92 NSCLC": {"tested_on": "HOP-92 NSCLC"}, "UACC-257 melanoma": {"tested_on": "UACC-257 melanoma"}, "NCI-H226 lung": {"tested_on": "NCI-H226 lung"}, "LXFL 529 NSCLC": {"tested_on": "LXFL 529 NSCLC"}, "A549 NSCLC": {"tested_on": "A549 NSCLC"}, "NCI-H460 lung": {"tested_on": "NCI-H460 lung"}, "KM20L2 colon": {"tested_on": "KM20L2 colon"}, "KM12 colon": {"tested_on": "KM12 colon"}, "SF-295 CNS": {"tested_on": "SF-295 CNS"}, "SF-268 CNS": {"tested_on": "SF-268 CNS"}, "MOLT-4 leukemia": {"tested_on": "MOLT-4 leukemia"}, "SK-OV-3 ovarian": {"tested_on": "SK-OV-3 ovarian"}, "SN12C renal": {"tested_on": "SN12C renal"}, "SNB-78 CNS": {"tested_on": "SNB-78 CNS"}, "XF 498 CNS": {"tested_on": "XF 498 CNS"}, "SK-MEL-2 melanoma": {"tested_on": "SK-MEL-2 melanoma"}}, "note": "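Cultured in 96-well plates, cells were exposed to test compound for 48 hours across five concentrations. Definition used: TGI = concentration required for complete inhibition of growth.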"}
{"smiles": "Cc1ccccc1C(C#N)/C(=N/NC(=O)c1cc2ccccc2cc1O)C(=O)Nc1cccc(Cl)c1", "note": "(stereo unspecified)", "values": [{"measurement": "TGI", "setting": "HL-60(TB) leukemia", "value": 26.8, "unit": "µM"}, {"measurement": "TGI", "setting": "OVCAR-3 ovarian", "value": 92.7, "unit": "µM"}, {"measurement": "TGI", "setting": "SK-MEL-28 melanoma", "value": "> 100", "unit": "µM"}, {"measurement": "TGI", "setting": "A498 renal", "value": "> 100", "unit": "µM"}, {"measurement": "TGI", "setting": "EKVX NSCLC", "value": "> 100", "unit": "µM"}, {"measurement": "TGI", "setting": "SW-620 colon", "value": "> 100", "unit": "µM"}, {"measurement": "TGI", "setting": "ACHN renal", "value": "> 100", "unit": "µM"}, {"measurement": "TGI", "setting": "K-562 leukemia", "value": "> 100", "unit": "µM"}, {"measurement": "TGI", "setting": "HT29 colon", "value": "> 100", "unit": "µM"}, {"measurement": "TGI", "setting": "RPMI-8226 leukemia", "value": "> 100", "unit": "µM"}, {"measurement": "TGI", "setting": "NCI-H522 lung", "value": 78.3, "unit": "µM"}, {"measurement": "TGI", "setting": "HOP-18 NSCLC", "value": 73.4, "unit": "µM"}, {"measurement": "TGI", "setting": "OVCAR-8 ovarian", "value": "> 100", "unit": "µM"}, {"measurement": "TGI", "setting": "HOP-62 NSCLC", "value": "> 100", "unit": "µM"}, {"measurement": "TGI", "setting": "HCC-2998 colon", "value": 78.5, "unit": "µM"}, {"measurement": "TGI", "setting": "UACC-62 melanoma", "value": 18.1, "unit": "µM"}, {"measurement": "TGI", "setting": "CCRF-CEM leukemia", "value": "> 100", "unit": "µM"}, {"measurement": "TGI", "setting": "IGROV1 ovarian", "value": 65.3, "unit": "µM"}, {"measurement": "TGI", "setting": "DLD-1 colon", "value": "> 100", "unit": "µM"}, {"measurement": "TGI", "setting": "SNB-19 CNS", "value": "> 100", "unit": "µM"}, {"measurement": "TGI", "setting": "OVCAR-4 ovarian", "value": 87.7, "unit": "µM"}, {"measurement": "TGI", "setting": "MALME-3M melanoma", "value": "> 100", "unit": "µM"}, {"measurement": "TGI", "setting": "786-0 renal", "value": "> 100", "unit": "µM"}, {"measurement": "TGI", "setting": "SNB-75 CNS", "value": 35.6, "unit": "µM"}, {"measurement": "TGI", "setting": "HCT-15 colon", "value": "> 100", "unit": "µM"}, {"measurement": "TGI", "setting": "TK-10 renal", "value": "> 100", "unit": "µM"}, {"measurement": "TGI", "setting": "SR leukemia", "value": 84.5, "unit": "µM"}, {"measurement": "TGI", "setting": "CAKI-1 renal", "value": "> 100", "unit": "µM"}, {"measurement": "TGI", "setting": "NCI-H23 lung", "value": 51.2, "unit": "µM"}, {"measurement": "TGI", "setting": "OVCAR-5 ovarian", "value": 51.2, "unit": "µM"}, {"measurement": "TGI", "setting": "UO-31 renal", "value": 8.4, "unit": "µM"}, {"measurement": "TGI", "setting": "M14 melanoma", "value": "> 100", "unit": "µM"}, {"measurement": "TGI", "setting": "COLO 205 colon", "value": 72.5, "unit": "µM"}, {"measurement": "TGI", "setting": "DMS 273 small cell lung", "value": 32.5, "unit": "µM"}, {"measurement": "TGI", "setting": "SF-539 CNS", "value": 69.9, "unit": "µM"}, {"measurement": "TGI", "setting": "M19-MEL melanoma", "value": 52.1, "unit": "µM"}, {"measurement": "TGI", "setting": "SK-MEL-5 melanoma", "value": 27.4, "unit": "µM"}, {"measurement": "TGI", "setting": "U251 CNS", "value": "> 100", "unit": "µM"}, {"measurement": "TGI", "setting": "HCT-116 colon", "value": "> 100", "unit": "µM"}, {"measurement": "TGI", "setting": "DMS 114 small cell lung", "value": 51.8, "unit": "µM"}, {"measurement": "TGI", "setting": "HOP-92 NSCLC", "value": "> 100", "unit": "µM"}, {"measurement": "TGI", "setting": "UACC-257 melanoma", "value": 76.1, "unit": "µM"}, {"measurement": "TGI", "setting": "NCI-H226 lung", "value": 78.4, "unit": "µM"}, {"measurement": "TGI", "setting": "LXFL 529 NSCLC", "value": "> 100", "unit": "µM"}, {"measurement": "TGI", "setting": "A549 NSCLC", "value": "> 100", "unit": "µM"}, {"measurement": "TGI", "setting": "NCI-H460 lung", "value": "> 100", "unit": "µM"}, {"measurement": "TGI", "setting": "KM20L2 colon", "value": 94.4, "unit": "µM"}, {"measurement": "TGI", "setting": "KM12 colon", "value": "> 100", "unit": "µM"}, {"measurement": "TGI", "setting": "SF-295 CNS", "value": "> 100", "unit": "µM"}, {"measurement": "TGI", "setting": "SF-268 CNS", "value": 90.3, "unit": "µM"}, {"measurement": "TGI", "setting": "MOLT-4 leukemia", "value": "> 100", "unit": "µM"}, {"measurement": "TGI", "setting": "SK-OV-3 ovarian", "value": "> 100", "unit": "µM"}, {"measurement": "TGI", "setting": "SN12C renal", "value": "> 100", "unit": "µM"}, {"measurement": "TGI", "setting": "SNB-78 CNS", "value": "> 100", "unit": "µM"}, {"measurement": "TGI", "setting": "XF 498 CNS", "value": 73.3, "unit": "µM"}, {"measurement": "TGI", "setting": "SK-MEL-2 melanoma", "value": 76, "unit": "µM"}]}
